Experimental data taken from US20060099712A1, “Correlation of anti-cancer activity of dyes with redox potentials” (Eastman Kodak Company, priority 2004, published 2006).
Converted amounts (≈) assume the structure as drawn. “And” between values parts separate entries of the source, which are not always exact repeats. Identical values can stand only once. Like-named read-outs stand apart in the source and are kept apart here.

Test system: CV-1 Normal Monkey Kidney Epithelial
Assay: Clonogenic dye screening assay, CV-1 cells (IC50)
Assay type: cell-based, African green monkey
Conditions: for IC50 (concentration at which 50% of the cells of the culture are killed): cell line 1, CV-1 normal control; for IC50: Primates
Method in brief: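 Cells seeded 16-30 h ahead (2000 CX-1 or 1000 CV-1 per well), exposed to serially diluted dyes for 3 h at 37 °C, rinsed three times, then grown into colonies. Eight-point curves spanned 0.32-0.0015 μg/mL (CX-1) and 3.2-0.025 μg/mL (CV-1). IC50 is the concentration killing 50% of cells.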

[1] = CV-1, cell line 1, CV-1 normal control, unit from method, read-out: IC50 (concentration at which 50% of the cells of the culture are killed)
[2] = CV-1, Table XIX, CV-1 cells, read-out: CV

SMILES: CCN1C(=CC=Cc2sc3cc4ccccc4cc3[n+]2CC)Sc2cc3ccccc3cc21 [AC-2]
- IC50 (concentration at which 50% of the cells of the culture are killed) (unit from method): 0.30 µg/mL

SMILES: COc1cccc2c1C(=O)c1c(O)c3c(c(O)c1C2=O)C[C@@](O)(C(=O)CO)C[C@@H]3O[C@H]1C[C@H](N)[C@H](O)[C@H](C)O1 [Adriamycin, reference compound]
- IC50 [1]: 0.8 µg/mL (≈ 1.47 µM)

SMILES: CCN1/C(=C/C=C/c2sc3ccccc3[n+]2CC)Sc2ccccc21.[I-] [Dye D-101]
- IC50 (concentration at which 50% of the cells of the culture are killed) (unit from method): 0.5 µg/mL and 0.50 µg/mL

SMILES: CCN1/C(=C\C=C\C2=[N+](CC)c3ccccc3C2(C)C)C(C)(C)c2ccccc21 [Dye D-103]
- IC50 (CV-1, read-out: CV): 5 µg/mL
- IC50 (CV-1, read-out: CV (IC50 in the CV-1 cell line)): 5 µg/mL

SMILES: CCN1/C(=C/C=C/c2sc3cc4ccccc4cc3[n+]2CC)Sc2cc3ccccc3cc21 [Dye D-109]
- IC50 [2]: 0.3 µg/mL

SMILES: CCN1C(=CC=Cc2sc3cc4ccccc4nc3[n+]2CC)Sc2cc3ccccc3nc21 [Dye D-150]
- IC50 (CV-1, 3 hrs treatment, colonies after 7-10 days, unit from method, read-out: CV (IC50 in the CV-1 cell line)): 3 µg/mL
- IC50 [2]: 3 µg/mL
- IC50 [1]: 3 µg/mL

SMILES: CCN1/C(=C/C=C/c2sc3cc4ccccc4cc3[n+]2CC)Sc2cc3ccccc3cc21 [Dye D-160]
- IC50 [1]: 0.3 µg/mL
